{
  "source": "patent US6693094B2",
  "about": "“Biguanide and sulfonylurea formulations for the prevention and treatment of insulin resistance and type 2 diabetes mellitus” (Chrono RX LLC, priority 2001, dated 2004)",
  "origin": "cited, not measured here",
  "key": {"[1]": {"conditions": "in vivo"}, "[2]": {"conditions": "in vivo", "remark": "listed apart in the source"}, "sulfonylurea receptor": {"target": "sulfonylurea receptor (Homo sapiens, UniProt Q09428)", "sequence (Q09428 whole entry)": "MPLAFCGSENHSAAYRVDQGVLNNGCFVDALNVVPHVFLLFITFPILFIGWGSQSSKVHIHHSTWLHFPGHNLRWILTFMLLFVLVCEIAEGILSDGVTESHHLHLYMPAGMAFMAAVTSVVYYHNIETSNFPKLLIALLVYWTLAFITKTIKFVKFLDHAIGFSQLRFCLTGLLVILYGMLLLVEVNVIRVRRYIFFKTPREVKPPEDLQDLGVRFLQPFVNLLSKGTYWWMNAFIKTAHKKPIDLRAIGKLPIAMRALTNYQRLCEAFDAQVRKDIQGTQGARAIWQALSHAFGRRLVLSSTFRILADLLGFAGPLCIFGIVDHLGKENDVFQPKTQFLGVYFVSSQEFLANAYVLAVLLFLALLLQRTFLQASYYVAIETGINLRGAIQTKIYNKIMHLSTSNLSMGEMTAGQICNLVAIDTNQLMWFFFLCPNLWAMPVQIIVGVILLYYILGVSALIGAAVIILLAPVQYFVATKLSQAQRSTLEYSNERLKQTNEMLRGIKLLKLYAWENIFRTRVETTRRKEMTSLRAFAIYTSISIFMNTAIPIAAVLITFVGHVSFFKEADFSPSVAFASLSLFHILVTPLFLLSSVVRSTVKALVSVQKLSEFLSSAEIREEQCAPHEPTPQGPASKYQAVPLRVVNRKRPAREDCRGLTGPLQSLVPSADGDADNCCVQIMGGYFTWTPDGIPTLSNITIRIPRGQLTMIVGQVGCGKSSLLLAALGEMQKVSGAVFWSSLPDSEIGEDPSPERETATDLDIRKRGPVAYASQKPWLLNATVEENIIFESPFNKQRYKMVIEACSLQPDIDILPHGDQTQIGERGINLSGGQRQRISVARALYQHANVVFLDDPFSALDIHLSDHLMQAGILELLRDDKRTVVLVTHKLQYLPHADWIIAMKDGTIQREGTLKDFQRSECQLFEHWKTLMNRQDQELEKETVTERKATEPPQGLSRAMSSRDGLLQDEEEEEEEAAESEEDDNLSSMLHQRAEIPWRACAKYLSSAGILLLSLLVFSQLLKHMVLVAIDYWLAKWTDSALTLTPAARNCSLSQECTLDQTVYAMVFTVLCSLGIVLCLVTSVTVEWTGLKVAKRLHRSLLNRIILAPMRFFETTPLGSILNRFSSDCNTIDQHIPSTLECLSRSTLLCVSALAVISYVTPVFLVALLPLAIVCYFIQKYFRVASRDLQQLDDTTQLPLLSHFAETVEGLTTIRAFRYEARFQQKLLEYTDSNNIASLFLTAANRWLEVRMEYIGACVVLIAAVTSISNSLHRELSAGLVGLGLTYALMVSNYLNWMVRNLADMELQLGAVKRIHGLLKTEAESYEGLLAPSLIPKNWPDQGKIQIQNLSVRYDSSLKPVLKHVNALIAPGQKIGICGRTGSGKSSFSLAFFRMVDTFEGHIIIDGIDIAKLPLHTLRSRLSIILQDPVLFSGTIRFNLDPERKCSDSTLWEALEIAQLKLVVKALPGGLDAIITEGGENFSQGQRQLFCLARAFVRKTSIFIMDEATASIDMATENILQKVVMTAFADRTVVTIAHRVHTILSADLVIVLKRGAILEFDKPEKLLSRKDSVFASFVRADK", "sequence (Q14654 whole entry partner)": "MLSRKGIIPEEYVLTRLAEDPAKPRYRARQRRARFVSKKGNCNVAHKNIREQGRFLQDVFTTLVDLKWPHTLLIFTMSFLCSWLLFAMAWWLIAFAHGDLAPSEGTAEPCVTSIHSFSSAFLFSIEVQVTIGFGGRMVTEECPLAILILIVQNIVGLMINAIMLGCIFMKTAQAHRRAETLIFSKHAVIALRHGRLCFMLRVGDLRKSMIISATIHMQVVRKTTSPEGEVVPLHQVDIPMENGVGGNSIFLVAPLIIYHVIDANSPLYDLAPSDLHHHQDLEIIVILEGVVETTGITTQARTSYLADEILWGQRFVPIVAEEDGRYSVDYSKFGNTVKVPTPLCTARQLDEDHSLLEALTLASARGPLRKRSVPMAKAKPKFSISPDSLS", "conditions": "sulfonylurea receptors of the β-cell membrane"}, "[3]": {"conditions": "in vivo", "remark": "listed apart in the source"}, "[4]": {"system": "insulin secreting β-cells", "conditions": "hyperglycemic conditions"}, "[5]": {"system": "patients with essential hypertension and coronary artery disease", "conditions": "60 mg twice daily for 8 weeks, oral"}, "pancreatic islets": {"system": "pancreatic islets", "conditions": "islets exposed to IL-1 beta"}, "[6]": {"system": "insulin-resistant type 2 diabetes patients"}, "[7]": {"system": "obese type 2 diabetes patients", "conditions": "600 mg/day, used alone"}},
  "data": [
    {"compound": "CC(=O)c1ccc(S(=O)(=O)NC(=O)NC2CCCCC2)cc1", "note": "[Acetohexamide]", "values": [
      {"measurement": "Duration of Action", "setting": "[1]", "result": "12 to 18", "unit": "h"}
    ]},
    {"compound": "CCCNC(=O)NS(=O)(=O)c1ccc(Cl)cc1", "note": "[Chlorpropamide]", "values": [
      {"measurement": "Duration of Action", "setting": "[1]", "result": 60, "unit": "h"}
    ]},
    {"compound": "[Cr]", "note": "[Cr, Chromium]", "values": [
      {"measurement": "reduction of metformin requirements", "setting": "[2]", "result": "more than one-half"}
    ]},
    {"compound": "CCC1=C(C)CN(C(=O)NCCc2ccc(S(=O)(=O)NC(=O)N[C@H]3CC[C@H](C)CC3)cc2)C1=O", "note": "[Glimepiride]", "values": [
      {"measurement": "Duration of Action", "setting": "[1]", "result": "16 to 24", "unit": "h"}
    ]},
    {"compound": "Cc1cnc(C(=O)NCCc2ccc(S(=O)(=O)NC(=O)NC3CCCCC3)cc2)cn1", "note": "[Glipizide]", "values": [
      {"measurement": "Duration of Action", "setting": "[1]", "result": "12 to 24", "unit": "h"},
      {"measurement": "concentration range that saturates receptors", "setting": "sulfonylurea receptor", "result": "low nM"}
    ]},
    {"compound": "COc1ccc(Cl)cc1C(=O)NCCc1ccc(S(=O)(=O)NC(=O)NC2CCCCC2)cc1", "note": "[Glyburide]", "values": [
      {"measurement": "glycolytic flux and lactate production", "setting": "perfused rat hearts", "result": "dramatic increase"}
    ]},
    {"compound": "CN(C)C(=N)N=C(N)N", "note": "[Metformin, metformin]", "values": [
      {"measurement": "frequency of lactic acidosis", "setting": "[3]", "result": "3 cases per 100,000 patient-years"},
      {"measurement": "incidence of lactic acidosis", "setting": "[3]", "result": "0.03 /1,000 patient-years exposure"}
    ]},
    {"compound": "CCCCNC(=O)NS(=O)(=O)c1ccc(C)cc1", "note": "[Tolbutamide]", "values": [
      {"measurement": "Duration of Action", "setting": "[1]", "result": "6 to 12", "unit": "h"}
    ]},
    {"compound": "O=C1O[C@H]([C@@H](O)CO)C(O)=C1O", "note": "[ascorbate, ascorbic acid]", "values": [
      {"measurement": "decrease of cellular insulin glycation", "setting": "[4]", "result": "66-80%"}
    ]},
    {"compound": "COC1=C(OC)C(=O)C(C/C=C(\\C)CC/C=C(\\C)CC/C=C(\\C)CC/C=C(\\C)CC/C=C(\\C)CC/C=C(\\C)CC/C=C(\\C)CC/C=C(\\C)CC/C=C(\\C)CCC=C(C)C)=C(C)C1=O", "note": "[coenzyme Q10, Ubiquinone]", "values": [
      {"measurement": "HDL-cholesterol", "setting": "[5]", "result": "increased"},
      {"measurement": "systolic and diastolic blood pressure, fasting and 2-h plasma insulin, glucose, triglycerides, lipid peroxides, malondialdehyde and diene conjugates", "setting": "[5]", "result": "all reduced"}
    ]},
    {"compound": "NC(=O)c1cccnc1", "note": "[nicotinamide, Nicotinamide]", "values": [
      {"measurement": "concentration of maximum recovery of glucose-induced insulin secretion", "setting": "pancreatic islets", "result": 25, "unit": "mmol/L"}
    ]},
    {"compound": "O=S(=O)([O-])[O-].[O]=[V+2]", "note": "[vanadyl sulfate]", "values": [
      {"measurement": "time effects are sustained after discontinuation", "setting": "[6]; 100 mg/day for 3 weeks", "result": "up to 2 weeks"},
      {"measurement": "hepatic and peripheral insulin sensitivity", "setting": "[6]; 100 mg/day, after 3 weeks", "result": "appear to improve"}
    ]},
    {"compound": "vitamin E", "values": [
      {"measurement": "insulin efficiency and fibrinolysis", "setting": "[7]", "result": "may further worsen insulin efficiency and increase fibrinolysis"}
    ]}
  ]
}
